Reference: patent US20240067632A1, “WEE1 Degrading Compounds and Uses Thereof” (Bristol-Myers Squibb Company, priority 2022, published 2024)
Like-named read-outs stand apart in the source and are kept apart here.

How the values were obtained:
MKN45 cells = test: MKN45 cell proliferation assay (Cell-Titer-Glo, 120 h); type: cell-based; details: for EC50: Homo sapiens, MKN-45, 120 h, Cell-Titer-Glo, read-out: MKN45 Cell Prolif. 120 hr (EC50); for MKN45 Cell Prolif. 120 hr (Ymin-Obs): minimal percent of DMSO control observed in the concentrations tested
Summary of the method: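 Cells seeded at 400/well onto pre-printed 10-point half-log dilutions (top 1 or 10 uM, 0.1% DMSO final), in triplicate, and grown 120 h at 37 C. Viability by Cell-Titer-Glo luminescence, blank-subtracted and normalised to DMSO; EC50 from four-parameter logistic fit, with observed minimal % of control recorded as Ymin-obs.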

WEE1 = molecular target: T1, WEE1 (Homo sapiens, UniProt P30291+Q96SW2); test: WEE1-ePL degradation assay (LentiX-WEE1-ePL-GSPT1-ND cells, InCELL Hunter luminescence, 4 h); type: cell-based; details: 293T-LentiX WEE1-ePL cells; for DC50: read-out: 293T-LentiX WEE1-ePL Degradation 4 hr (EC50)
T1 construct: C-terminal ePL-tagged (DiscoverX, Fremont, CA) full-length WEE1 expression construct; expressed in transfected cells; host or cells: LentiX-HEK293T (Invitrogen), lentiviral transduction; co-expressing GSPT1-GN (G576N, lacking the first 158 amino acids)
Summary of the method: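 HEK293T cells stably expressing C-terminal ePL-tagged full-length WEE1, 2500 cells/well, treated 4 h at 37° C with a 10-point 3-fold series from 1 or 10 uM. Remaining WEE1-ePL read by InCELL Hunter luminescence after 30 min. EC50 came from a four-parameter logistic fit, with Ymax set from DMSO control.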

[1] = lower limit of the fit (Ymin=0 luciferase inhibitor, Ymax DMSO control)
[2] = lower limit of the fit (0 = luciferase inhibitor, Ymax = DMSO control)

SMILES | EC50 (MKN45 cells) [nM] | 293T-LentiX WEE1-ePL Degradation 4 hr (Ymin) (WEE1; [1]) | DC50 (WEE1) [nM] | EC50 (MKN45 cells; growth inhibition) [nM] | 293T-LentiX WEE1-ePL Degradation 4 hr (Ymin) (WEE1; [2]) | MKN45 Cell Prolif. 120 hr (Ymin-Obs) (MKN45 cells)
CO[C@H]1CCCC[C@@H]1c1ccc2cc(CN3CC[C@H](Oc4ccc5c(c4)CN(C4CCC(=O)NC4=O)C5=O)C3)ccc2n1 (stereo partly drawn) [3-(5-{[(3S)-1-({2-[(1R,2S)-2-methoxycyclohexyl]quinolin-6-yl}methyl)pyrrolidin-3-yl]oxy}-1-oxo-2,3-dihydro-1H-isoindol-2-yl)piperidine-2,6-dione] | 7.63 | 25.39 | 4.52 |  |  | 23.82
CO[C@H]1CCC[C@@H]1c1ccc2cc(CN3CC[C@H](Oc4ccc5c(c4)CN(C4CCC(=O)NC4=O)C5=O)C3)ccc2n1 (stereo partly drawn) [3-(5-{[(3S)-1-({2-[(1R,2S)-2-methoxycyclopentyl]quinolin-6-yl}methyl)pyrrolidin-3-yl]oxy}-1-oxo-2,3-dihydro-1H-isoindol-2-yl)piperidine-2,6-dione] | 5.54 | 30.79 | 4.34 |  |  | 8.858
COC[C@@H]1CC[C@@H](c2ccc3cc(CN4CC[C@H](Oc5ccc6c(c5)CN(C5CCC(=O)NC5=O)C6=O)C4)ccc3n2)C1 (stereo partly drawn) [3-(5-{[(3S)-1-({2-[(1R,3R)-3-(methoxymethyl)cyclopentyl]quinolin-6-yl}methyl)pyrrolidin-3-yl]oxy}-1-oxo-2,3-dihydro-1H-isoindol-2-yl)piperidine-2,6-dione] | 3.05 | 34.2 | 3.01 |  |  | 8.79
O=C1CCC(N2Cc3cc(O[C@H]4CCN(Cc5ccc6nc([C@@H]7CCC[C@@H](O)C7)ccc6c5)C4)ccc3C2=O)C(=O)N1 (stereo partly drawn) [3-(5-{[(3S)-1-({2-[(1R,3R)-3-hydroxycyclohexyl]quinolin-6-yl}methyl)pyrrolidin-3-yl]oxy}-1-oxo-2,3-dihydro-1H-isoindol-2-yl)piperidine-2,6-dione] |  |  | 3.18 | 1.18 | 31 | 8.405
O=C1CCC(N2Cc3cc(O[C@H]4CCN(Cc5ccc6nc([C@@H]7CC[C@@H](O)C7)ccc6c5)C4)ccc3C2=O)C(=O)N1 (stereo partly drawn) [3-(5-{[(3S)-1-({2-[(1R,3R)-3-hydroxycyclopentyl]quinolin-6-yl}methyl)pyrrolidin-3-yl]oxy}-1-oxo-2,3-dihydro-1H-isoindol-2-yl)piperidine-2,6-dione] |  |  | 2.6 | 1.38 | 31.5 | 8.2675
CO[C@@H]1CCC[C@@H](c2ccc3cc(CN4CC[C@H](Oc5ccc6c(c5)CN(C5CCC(=O)NC5=O)C6=O)C4)ccc3n2)C1 (stereo partly drawn) [3-(5-{[(3S)-1-({2-[(1R,3R)-3-methoxycyclohexyl]quinolin-6-yl}methyl)pyrrolidin-3-yl]oxy}-1-oxo-2,3-dihydro-1H-isoindol-2-yl)piperidine-2,6-dione] |  |  | 2.83 | 0.93 | 29 | 7.97
CO[C@@H]1CC[C@@H](c2ccc3cc(CN4CC[C@H](Oc5ccc6c(c5)CN(C5CCC(=O)NC5=O)C6=O)C4)ccc3n2)C1 (stereo partly drawn) [3-(5-{[(3S)-1-({2-[(1R,3R)-3-methoxycyclopentyl]quinolin-6-yl}methyl)pyrrolidin-3-yl]oxy}-1-oxo-2,3-dihydro-1H-isoindol-2-yl)piperidine-2,6-dione] |  |  | 4.74 | 1.95 | 30 | 7.45
O=C1CCC(N2Cc3cc(O[C@H]4CCN(Cc5ccc6nc(N7[C@@H]8COC[C@H]7C8)ncc6c5)C4)ccc3C2=O)C(=O)N1 (stereo partly drawn) [3-(5-{[(3S)-1-({2-[(1R,5S)-3-oxa-6-azabicyclo[3.1.1]heptan-6-yl]quinazolin-6-yl}methyl)pyrrolidin-3-yl]oxy}-1-oxo-2,3-dihydro-1H-isoindol-2-yl)piperidine-2,6-dione] |  |  | 117 | 17 | 38 | 10.76
O=C1CCC(N2Cc3cc(O[C@H]4CCN(Cc5ccc6nc(N7[C@@H]8CC[C@H]7COC8)ncc6c5)C4)ccc3C2=O)C(=O)N1 (stereo partly drawn) [3-(5-{[(3S)-1-({2-[(1R,5S)-3-oxa-8-azabicyclo[3.2.1]octan-8-yl]quinazolin-6-yl}methyl)pyrrolidin-3-yl]oxy}-1-oxo-2,3-dihydro-1H-isoindol-2-yl)piperidine-2,6-dione] |  |  | 101 | 24.9 | 33 | 8.88
O=C1CCC(N2Cc3cc(O[C@H]4CCN(Cc5ccc6nc(N7[C@@H]8CC[C@H]7COC8)ccc6c5)C4)ccc3C2=O)C(=O)N1 (stereo partly drawn) [3-(5-{[(3S)-1-({2-[(1R,5S)-3-oxa-8-azabicyclo[3.2.1]octan-8-yl]quinolin-6-yl}methyl)pyrrolidin-3-yl]oxy}-1-oxo-2,3-dihydro-1H-isoindol-2-yl)piperidine-2,6-dione] |  |  | 4.47 | 9.72 | 28 | 11.965
O=C1CCC(N2Cc3cc(O[C@H]4CCN(Cc5ccc6nc(N7C[C@H]8C[C@@H](C7)O8)ncc6c5)C4)ccc3C2=O)C(=O)N1 (stereo partly drawn) [3-(5-{[(3S)-1-({2-[(1R,5S)-6-oxa-3-azabicyclo[3.1.1]heptan-3-yl]quinazolin-6-yl}methyl)pyrrolidin-3-yl]oxy}-1-oxo-2,3-dihydro-1H-isoindol-2-yl)piperidine-2,6-dione] |  |  | 20.2 | 16.4 | 39 | 13.42

The next lines start with results.

EC50 (MKN45 cells) [nM] | 293T-LentiX WEE1-ePL Degradation 4 hr (Ymin) (WEE1; [1]) | DC50 (WEE1) [nM] | EC50 (MKN45 cells; growth inhibition) [nM] | 293T-LentiX WEE1-ePL Degradation 4 hr (Ymin) (WEE1; [2]) | SMILES | MKN45 Cell Prolif. 120 hr (Ymin-Obs) (MKN45 cells)
3.09 | 34.11 | 3.12 |  |  | COC[C@H]1CC[C@@H](c2ccc3cc(CN4CC[C@H](Oc5ccc6c(c5)CN(C5CCC(=O)NC5=O)C6=O)C4)ccc3n2)C1 (stereo partly drawn) [3-(5-{[(3S)-1-({2-[(1R,3S)-3-(methoxymethyl)cyclopentyl]quinolin-6-yl}methyl)pyrrolidin-3-yl]oxy}-1-oxo-2,3-dihydro-1H-isoindol-2-yl)piperidine-2,6-dione] | 8.888
 |  | 3.33 | 0.655 | 32 | O=C1CCC(N2Cc3cc(O[C@H]4CCN(Cc5ccc6nc([C@@H]7CC[C@H](O)C7)ccc6c5)C4)ccc3C2=O)C(=O)N1 (stereo partly drawn) [3-(5-{[(3S)-1-({2-[(1R,3S)-3-hydroxycyclopentyl]quinolin-6-yl}methyl)pyrrolidin-3-yl]oxy}-1-oxo-2,3-dihydro-1H-isoindol-2-yl)piperidine-2,6-dione] | 7.585
 |  | 3.49 | 1.96 | 27.5 | CO[C@H]1CCC[C@@H](c2ccc3cc(CN4CC[C@H](Oc5ccc6c(c5)CN(C5CCC(=O)NC5=O)C6=O)C4)ccc3n2)C1 (stereo partly drawn) [3-(5-{[(3S)-1-({2-[(1R,3S)-3-methoxycyclohexyl]quinolin-6-yl}methyl)pyrrolidin-3-yl]oxy}-1-oxo-2,3-dihydro-1H-isoindol-2-yl)piperidine-2,6-dione] | 7.623
 |  | 3.2 | 0.741 | 28.33 | CO[C@H]1CC[C@@H](c2ccc3cc(CN4CC[C@H](Oc5ccc6c(c5)CN(C5CCC(=O)NC5=O)C6=O)C4)ccc3n2)C1 (stereo partly drawn) [3-(5-{[(3S)-1-({2-[(1R,3S)-3-methoxycyclopentyl]quinolin-6-yl}methyl)pyrrolidin-3-yl]oxy}-1-oxo-2,3-dihydro-1H-isoindol-2-yl)piperidine-2,6-dione] | 7.233
 |  | 80.1 | 76.6 | 39 | O=C1CCC(N2Cc3cc(O[C@H]4CCN(Cc5ccc6nc(N7C[C@H]8C[C@@H]7CO8)ncc6c5)C4)ccc3C2=O)C(=O)N1 (stereo partly drawn) [3-(5-{[(3S)-1-({2-[(1R,4R)-2-oxa-5-azabicyclo[2.2.1]heptan-5-yl]quinazolin-6-yl}methyl)pyrrolidin-3-yl]oxy}-1-oxo-2,3-dihydro-1H-isoindol-2-yl)piperidine-2,6-dione] | 16.57
 |  | 5.67 | 6.19 | 33 | O=C1CCC(N2Cc3cc(O[C@H]4CCN(Cc5ccc6nc(N7C[C@H]8C[C@@H]7CO8)ccc6c5)C4)ccc3C2=O)C(=O)N1 (stereo partly drawn) [3-(5-{[(3S)-1-({2-[(1R,4R)-2-oxa-5-azabicyclo[2.2.1]heptan-5-yl]quinolin-6-yl}methyl)pyrrolidin-3-yl]oxy}-1-oxo-2,3-dihydro-1H-isoindol-2-yl)piperidine-2,6-dione] | 9.745
 |  | 8.62 | 11.2 | 37 | O=C1CCC(N2Cc3cc(O[C@H]4CCN(Cc5ccc6nc(N7[C@@H]8COC[C@H]7C8)ccc6c5)C4)ccc3C2=O)C(=O)N1 (stereo partly drawn) [3-(5-{[(3S)-1-({2-[(1R,5S)-3-oxa-6-azabicyclo[3.1.1]heptan-6-yl]quinolin-6-yl}methyl)pyrrolidin-3-yl]oxy}-1-oxo-2,3-dihydro-1H-isoindol-2-yl)piperidine-2,6-dione] | 9.645
